# Laboratory results taken from patent US6624140B1, “Synthetic peptides with antimicrobial and endotoxin neutralizing properties for management of the sepsis syndrome” (Academisch Ziekenhuis Bij de Universiteit van Amsterdam …, priority 1997, dated 2003).
# No end group written: not given here.
# Experiments:
# [1] = tested on: IL-6 production by endotoxin; experiment: IL-6 production in diluted whole blood, simultaneous addition of LPS and peptide; assay type: cell-based, human; details: LPS 1 ng/ml; concentrations as low as 1 μM; control even at 4-fold higher concentration; heparin 100 I.U/ml
# Experimental: FIG. 9. Effect of simultaneous addition of E. coli 0111:B4 LPS and synthetic peptides on IL-6 production in whole blood diluted 1 in 10. Synthetic peptides BP1 or BP2 or the control peptide BPI(85-102) at the concentrations indicated, were added together with E. coli 0111:B4 LPS at 1 ng/ml to diluted whole blood containing heparin at 100 I.U/ml. IL-6 concentration was determined after incubation for 16 h at 37° C. Each value is the mean of triplicate experiments. Controls contained no added peptide.
# The endotoxin neutralizing activities of the synthetic peptides of the invention were evaluated by investigating the effect on LPS-stimulated release of the pro-inflammatory cytokines, tumor necrosis factor alpha (TNF-α), interleukin-6 (IL-6) or interleukin-8 (IL-8) in a well characterized in vitro human whole blood bioassay system. In one series of experiments, dilutions of E. coli 0111:B4 LPS from 0.2 to 1 ng/ml were pre-incubated with synthetic peptides at 10 μg/ml concentrations in RPMI medium for 30 min at 20° C. and added to diluted whole blood. Cytokine concentrations in the supernatants were determined after further incubation for 16 h at 37° C. in the presence of 5% CO2 by specific and sensitive ELISA kits (CLB, Amsterdam, The Netherlands). In another series of experiments, the effects of synthetic peptides at concentrations of 2,5, 5 and 10 μg/ml on IL-6 induction by 1 ng/ml 0111:B4 LPS was examined after simultaneous addition of synthetic peptide and LPS to diluted whole blood. […] The control peptide BPI(85-102) was ineffective in reducing cytokine production under these conditions even at a 4-fold higher concentration. This probably reflects the differences in binding affinity for Lipid A of BP1 and BP2 compared with the BPI(85-102) peptide of approximately 5 and 10-fold, respectively. An additional factor which may have influenced binding of the control peptide to endotoxin is the presence of heparin employed as an anti-coagulant at a concentration of 100 I.U/ml in the assay system. […]
# [2] = tested on: Staphylococcus aureus; experiment: Bactericidal activity in liquid culture, S. aureus; assay type: cell-based; details: for effect on cell-density of Gram-positive bacterial cultures: in words; for % bacteria killed: 10^7 S. aureus bacteria/ml LB medium 37° C., concentration effective dose 3 (M^−6)
# Experimental: FIGS. 1A and 1B. The effect of synthetic peptides on the survival of E. coli 0111:B4 (panel A) or S. aureus (panel B). Logarithmically growing bacterial cells at a density of 10^7 cells/ml in Luria-Bertani (LB) medium were incubated with synthetic peptides at concentrations of 3, 5 and 7 μg/ml (1, 2 and 3 μM) at 37° C. for 1 h and the residual cell density expressed as a percentage of the value obtained from bacterial cultures without added peptides.
# A peptide encompassing a selected LPS-binding domain from a well characterized human antiendotoxin protein, known as bactericidal/permeability increasing protein (BPI), from amino acids 85 to 102, denoted as BPI(85-102), was included for a direct comparison of the efficacy of the endotoxin-binding domain of a naturally occurring protein and the synthetic peptides of the invention. The amino acid sequence of the BPI(85-102) peptide is:
# The BPI(85-102) reference peptide was synthesized as previously described for peptides of the invention and provided with a C-terminal Cys residue for the purpose of biotinylation as previously described. […] Incubation of various concentrations of the synthetic peptides according to the invention for a limited time period on the survival of both types of bacteria again illustrated their potent anti-microbial activity as opposed to that of the BPI(85-102) peptide (FIG. 1) with the sequence corresponding to that of the potential LPS binding domain of the native BPI protein. This is indicative of a broad specificity of the synthetic peptides, in keeping with the general bactericidal properties of this class of linear amphipathic α-helical peptides. […] The B2 residue in the N-terminal repetitive sequence element in each instance, instead of an aromatic amino acid residue, as specified by the formula of the invention, was replaced with an Ala residue and the hydrophobic (C2)n element made hydrophilic by substitution with Lys and Cys residues.
# [3] = tested on: TNF-α production; experiment: TNF-α in whole blood ex vivo after pre-incubation of LPS with peptide; assay type: cell-based, human; details: 1 to 10 μg/ml pre-incubated with 1 ng/ml LPS, even at lowest concentration 1 μg/ml, 4 h at 37° C.
# Experimental: FIG. 11. Effect of pre-incubation of E. coli 0111:B4 LPS with synthetic peptides or Polymyxin B on TNF-α levels in whole blood ex vivo. The indicated amounts of synthetic, control peptides or PmB were pre-incubated with E. coli 0111:B4 LPS at 1 ng/ml for […] at 23° C., added to whole blood containing heparin at 2 I.U/ml and the TNF-α concentrations determined after incubation for 4 h at 37° C. Each value is the mean of triplicate experiments. Controls only contained LPS.
# In addition, the LPS-neutralizing activity of selected synthetic peptides of the invention were compared in a more complex environment of whole blood ex vivo to determine the effect of physiological concentrations of blood components such as plasma proteins, blood cells etc. on the detoxification efficacy. In pre-incubation experiments, concentrations of synthetic peptides, control peptide or PmB from 1 to 10 μg/ml were pre-incubated with 1 ng/ml E. coli 0111:B4 LPS in pyrogen-free saline for 30 min at 23° C., added to venous blood containing heparin at 2 I.U/ml as anti-coagulant and incubated for 4 h at 37° C. TNF-α concentrations were determined in appropriately diluted cell-free supernatants as described before.
Substance,inhibition of IL-6 production [1],effect on cell-density of Gram-positive bacterial cultures [2],inhibition of TNF-α production [3],% bacteria killed [2]
"GKWKLFKKAFKKFLKILAC-OH [BP2, Gly-Lys-Trp-Lys-Leu-Phe-Lys-Lys-Ala-Phe-Lys-Lys-Phe-Leu-Lys-Ile-Leu-Ala-Cys]",completely inhibiting,dose-dependent reduction,almost complete inhibition,
"Ile-Lys-Ile-Ser-Gly-Lys-Trp-Lys-Ala-Gin-Lys-Arg-Phe-Leu-Lys-Met-Ser-Gly-(Cys) (IKISGKWKAQKRFLKMSGC; listed as Homo sapiens) [BPI(85-102), reference compound]",ineffective,no effect,almost complete inhibition,0%
GRLRKKWKAFKKFLKILAC [BP1],completely inhibiting,dose-dependent reduction,almost complete inhibition,34%
